In the data set the test system is statin-intolerant patients with or at high risk of CVD. The class given is in vivo. The source says: The CLEAR OUTCOMES trial was a randomized, placebo-controlled, double-blind trial that enrolled patients at 1250 sites in 32 countries. An independent Data Monitoring Committee reviewed safety and efficacy data during the trial.
Patients 18 to 85 years of age were eligible for enrollment if they met either of two criteria for increased cardiovascular risk, a prior cardiovascular event (secondary prevention) or clinical features that placed them at high risk for a cardiovascular event (primary prevention). (Nicholls S. Lincoff A M, Bays H E, et al. Rationale and design of the CLEAR-outcomes trial: Evaluating the effect of bempedoic acid on cardiovascular events in patients with statin intolerance. Am Heart J. 2021 May; 235:104-112) All patients provided written informed consent. Patients had to report statin intolerance due to an adverse effect that started or increased during statin therapy and resolved or improved after statin therapy was discontinued. Patients could be enrolled if they tolerated a very low average daily statin dose (e.g., an average daily dose of rosuvastatin <5 mg, atorvastatin <10 mg, simvastatin <10 mg, lovastatin <20 mg, pravastatin <40 mg, fluvastatin <40 mg, or pitavastatin <2 mg). Other lipid-lowering therapies were permitted, including ezetimibe, niacin, bile acid resins, fibrates, and/or proprotein convertase subtilisin kexin type 9 (PCSK9) inhibitors. Full inclusion and exclusion criteria are provided in Nicholls et al. (Am Heart J. 2021).
Eligible patients entered a 4-week run-in period during which patients were treated with single-blind placebo. If patients were intolerant to placebo treatment or if adherence was <80% by tablet count, they were not eligible for randomization. Patients who successfully completed the run-in period were randomly assigned in a 1:1 ratio to receive bempedoic acid at an oral dose of 180 mg or matching placebo, administered daily. Beginning 6 months after enrollment, the central laboratory notified the investigator if the patient's LDL-cholesterol level was ≥25% higher than baseline. These patients were counseled on healthy dietary guidelines and reminded to take all lipid-regulating medications. If repeat testing confirmed that LDL-cholesterol value met the threshold criteria, the provider could adjust the lipid-lowering treatment regimen per standard of care and local guidelines.
The primary end point was the first occurrence of a composite of death from cardiovascular causes, nonfatal myocardial infarction (MI), nonfatal stroke, or coronary revascularization. The first key secondary end point was time to the first occurrence of the composite of cardiovascular death, nonfatal stroke, or MI. Further key secondary end points included time to first occurrence of each of the following outcomes tested in hierarchical order, fatal or nonfatal MI, coronary revascularization, fatal or nonfatal stroke, death from cardiovascular causes, and all-cause mortality.
This was an event-driven trial designed to provide at least 90% power to detect a 15% relative risk reduction for the primary composite end point at an overall two-sided significance level of 0.05. The trial required a minimum of 1620 primary composite events with ≥24 months of follow-up for all patients and at least 810 first key secondary end points. The average treatment duration was estimated to be 42 months and a lost-to-follow-up rate of 1% per year. Assuming a 3.59% annual event rate in the placebo group, enrollment of 12,600 patients was required, subsequently amended to 14,000. There were no interim efficacy analyses. A hierarchical approach was prespecified to evaluate sequentially each of the six key secondary efficacy end points with statistical significance at each step required to test the next hypothesis, thereby preserving the study-wise Type I error rate at 5%. All analyses were based on the intent-to-treat principle. […]

[1] abbreviates: full population, 180 mg oral daily, N = 6992.

As for `CC(C)(CCCCCC(O)CCCCCC(C)(C)C(=O)O)C(=O)O` [Bempedoic Acid, Bempedoic acid], the “effect on other key secondary end points (time to first occurrence of stroke, death from cardiovascular causes, all-cause mortality)” value (compared with placebo, full population) is on record as “no significant effects”. For the same compound, under setting [1], the “3-component MACE, % of patients” value is given as “(8.2) %”; the “Coronary revascularization, % of patients” value was “(6.2) %”; the “Fatal and non-fatal MI, % of patients” value is listed as “(3.7) %”; the “Primary efficacy endpoint (MACE-4), % of patients” value is given as “(11.7) %”. Also, the “New-onset type 2 diabetes mellitus, Hazard Ratio” value (human, in vivo) is 0.95. Besides, the “reduction in risk of non-fatal myocardial infarction” value (vs placebo, 180 mg oral daily) is reported as “about 27%”. Further, under “vs placebo, full population”, the “3-component MACE, Hazard Ratio” value came out at 0.85; the “5 component MACE, Hazard Ratio” value came out at 0.86; the “All-cause mortality, nonfatal MI, nonfatal stroke, or coronary revascularization, Hazard Ratio” value was 0.89; the “Coronary revascularization, Hazard Ratio” value came to 0.81. Moreover, for the setting “vs placebo, full population”, the “Fatal and non-fatal MI, Hazard Ratio” value is listed as 0.77; the “Fatal and non-fatal stroke, Hazard Ratio” value is listed as 0.85; the “Fatal and nonfatal non-hemorrhagic stroke, Hazard Ratio” value came to 0.78; the “Hospitalization for unstable angina, Hazard Ratio” value is reported as 0.66. For the same compound, for the setting “vs placebo, full population”, the “Non-fatal MI, Hazard Ratio” value is given as 0.73; the “Non-fatal stroke, Hazard Ratio” value came to 0.82; the “Primary efficacy endpoint (MACE-4), Hazard Ratio” value was found to be 0.87.

For the origin of these results see US20240226049A1, “METHODS OF TREATMENT USING BEMPEDOIC ACID” (Esperion Therapeutics, Inc., priority 2023, published 2024).
